The text below walks through data of patent publication US11001590B2, “Pyrazolopyrimidine derivatives” (BAYER ANIMAL HEALTH GMBH, priority 2016, dated 2021).

The first data set relates to Dirofilaria immitis microfilariae. The data set can be described thus: In vitro assay 3: Dirofilaria immitis microfilariae (DIROIM L1), motility. Particulars: 72 h, reduction of motility vs negative control, 72 h incubation.
For `Cc1nn2c(C3CC3)c(C(=O)N[C@H]3CCc4ccccc43)cnc2c1-c1cc(F)ccc1F` [Example 422], the EC50 was less than 0.1 µg/mL.

In the case of `Cc1nn2c(C(C)C)c(C(=O)N[C@H]3CCOc4ccccc43)cnc2c1-c1cccc(Cl)c1` [Example 117], the EC50 is less than 0.1 µg/mL.

In the case of `Cc1nn2c(C(C)C)c(C(=O)N[C@H]3CCCc4ccccc43)cnc2c1-c1cccc(Cl)c1` [Example 45], the concentration for a half-maximal effect (EC50) is less than 0.1 µg/mL.

In turn, `Cc1nn2c(C(C)C)c(C(=O)N[C@H]3CCOc4ccccc43)cnc2c1-c1cccc(F)c1Cl` [Example 191] gave an EC50 of less than 0.1 µg/mL.

Consider `Cc1nn2c(C3CC3)c(C(=O)N[C@H]3CCOc4ccccc43)cnc2c1-c1cc(Cl)cc(C(F)(F)F)c1` [Example 465], for which the EC50 is less than 0.1 µg/mL.

Take `COc1cccc(-c2c(C)nn3c(C4CC4)c(C(=O)N[C@H]4CCc5ccccc54)cnc23)c1` [Example 351]: the concentration for a half-maximal effect (EC50) is less than 0.1 µg/mL.

Regarding `Cc1nn2c(C(C)C)c(C(=O)N[C@H]3CCOc4ccccc43)cnc2c1-c1cccc(F)c1` [Example 396], the EC50 is less than 0.1 µg/mL.

Take `Cc1nn2c(C(C)C)c(C(=O)N[C@H]3CCCc4ccccc43)cnc2c1-c1c(F)cccc1F` [Example 98]: the EC50 is less than 0.1 µg/mL.

As for `Cc1nn2c(C3CC3)c(C(=O)N[C@H]3CCc4ccccc43)cnc2c1-c1ccccc1F` [Example 357], the EC50 is less than 0.1 µg/mL.

`Cc1nn2c(C3CC3)c(C(=O)N[C@H]3CCc4ccccc43)cnc2c1-c1c(F)cc(F)cc1F` [Example 438] yielded an EC50 of less than 0.1 µg/mL.

The molecule `Cc1nn2c(C3CC3)c(C(=O)N[C@H]3CCc4ccccc43)cnc2c1-c1ccccc1Cl` [Example 349] gave an EC50 of less than 0.1 µg/mL.

With `Cc1nn2c(C3CC3)c(C(=O)N[C@H]3CCOc4ccccc43)cnc2c1-c1ccccc1Cl` [Example 452], the 50% effective concentration (EC50) is less than 0.1 µg/mL.

Turning to `Cc1nn2c(C3CC3)c(C(=O)N[C@H]3CCc4ccccc43)cnc2c1-c1c(F)cccc1F` [Example 405], the EC50 was less than 0.1 µg/mL.

The molecule `Cc1nn2c(C(C)C)c(C(=O)N[C@H]3CCOc4ccccc43)cnc2c1-c1cccc(C(F)F)c1` [Example 153] came in with an EC50 of less than 0.1 µg/mL.

Take `Cc1nn2c(C(C)C)c(C(=O)N[C@H]3CCc4ccccc43)cnc2c1-c1cccc(Cl)c1Cl` [Example 168]: the EC50 is less than 0.1 µg/mL.

The next data set deals with Dirofilaria immitis third-stage larvae. The data set can be described thus: In vitro assay 4: Dirofilaria immitis (DIROIM L4), motility of larvae. Particulars: 72 h.
Take `Cc1nn2c(C3CC3)c(C(=O)N[C@H]3CCc4ccccc43)cnc2c1-c1cc(F)ccc1F` [Example 422]: the EC50 is less than 0.1 µg/mL.

As to `Cc1nn2c(C(C)C)c(C(=O)N[C@H]3CCOc4ccccc43)cnc2c1-c1cccc(Cl)c1` [Example 117], the EC50 was less than 0.1 µg/mL.

In turn, `Cc1nn2c(C(C)C)c(C(=O)N[C@H]3CCCc4ccccc43)cnc2c1-c1cccc(Cl)c1` [Example 45] showed an EC50 of less than 1 µg/mL.

In turn, `Cc1nn2c(C(C)C)c(C(=O)N[C@H]3CCOc4ccccc43)cnc2c1-c1cccc(F)c1Cl` [Example 191] yielded an EC50 of less than 0.1 µg/mL.

The molecule `Cc1nn2c(C3CC3)c(C(=O)N[C@H]3CCOc4ccccc43)cnc2c1-c1cc(Cl)cc(C(F)(F)F)c1` [Example 465] displayed an EC50 of less than 0.1 µg/mL.

In turn, `COc1cccc(-c2c(C)nn3c(C4CC4)c(C(=O)N[C@H]4CCc5ccccc54)cnc23)c1` [Example 351] yielded an EC50 of less than 0.1 µg/mL.

Regarding `Cc1nn2c(C(C)C)c(C(=O)N[C@H]3CCOc4ccccc43)cnc2c1-c1cccc(F)c1` [Example 396], the EC50 was less than 0.1 µg/mL.

In turn, `Cc1nn2c(C(C)C)c(C(=O)N[C@H]3CCCc4ccccc43)cnc2c1-c1c(F)cccc1F` [Example 98] showed an EC50 of less than 0.1 µg/mL.

With `Cc1nn2c(C3CC3)c(C(=O)N[C@H]3CCc4ccccc43)cnc2c1-c1ccccc1F` [Example 357], the EC50 was less than 0.1 µg/mL.

Take `Cc1nn2c(C3CC3)c(C(=O)N[C@H]3CCc4ccccc43)cnc2c1-c1c(F)cc(F)cc1F` [Example 438]: the EC50 was less than 0.1 µg/mL.

Consider `Cc1nn2c(C3CC3)c(C(=O)N[C@H]3CCc4ccccc43)cnc2c1-c1ccccc1Cl` [Example 349], for which the EC50 is less than 0.1 µg/mL.

Consider `Cc1nn2c(C3CC3)c(C(=O)N[C@H]3CCOc4ccccc43)cnc2c1-c1ccccc1Cl` [Example 452], for which the EC50 was less than 0.1 µg/mL.

Regarding `Cc1nn2c(C3CC3)c(C(=O)N[C@H]3CCc4ccccc43)cnc2c1-c1c(F)cccc1F` [Example 405], the EC50 was less than 0.1 µg/mL.

As for `Cc1nn2c(C(C)C)c(C(=O)N[C@H]3CCOc4ccccc43)cnc2c1-c1cccc(C(F)F)c1` [Example 153], the EC50 is less than 0.1 µg/mL.

`Cc1nn2c(C(C)C)c(C(=O)N[C@H]3CCc4ccccc43)cnc2c1-c1cccc(Cl)c1Cl` [Example 168]: the EC50 is less than 0.1 µg/mL.

In the next data set the test system is Litomosoides sigmodontis third-stage larvae. The data set can be described thus: In vitro assay 7: Litomosoides sigmodontis L3 (LTMOSI), motility. Particulars: 72 h, reduction of motility vs negative control, 72 h incubation.
Protocol: In Vitro Assay 7: Litomosoides Siqmodontis L3 (LTMOSI)
10 Litomosoides sigmodontis third-stage larvae, which were freshly isolated from the pleural cavity of an infected rodent, were added to wells of a microtitre plate containing a nutrient medium and the test compound in DMSO. Compounds were tested in concentration-response assay in duplicate. Larvae exposed to DMSO and no test compounds were used as negative controls. Larvae were evaluated after 72 h of incubation with the compound. Efficacy was determined as the reduction of motility in comparison to the negative control. Based on the evaluation of a wide concentration range, concentration-response curves as well as ECso-values were calculated.
With `Cc1nn2c(C3CC3)c(C(=O)N[C@H]3CCc4ccccc43)cnc2c1-c1cc(F)ccc1F` [Example 422], the EC50 was less than 0.1 µg/mL.

In turn, `Cc1nn2c(C(C)C)c(C(=O)N[C@H]3CCOc4ccccc43)cnc2c1-c1cccc(Cl)c1` [Example 117] displayed an EC50 of less than 0.1 µg/mL.

`Cc1nn2c(C(C)C)c(C(=O)N[C@H]3CCCc4ccccc43)cnc2c1-c1cccc(Cl)c1` [Example 45] showed an EC50 of less than 0.1 µg/mL.

`Cc1nn2c(C(C)C)c(C(=O)N[C@H]3CCOc4ccccc43)cnc2c1-c1cccc(F)c1Cl` [Example 191] had an EC50 of less than 0.1 µg/mL.

`Cc1nn2c(C3CC3)c(C(=O)N[C@H]3CCOc4ccccc43)cnc2c1-c1cc(Cl)cc(C(F)(F)F)c1` [Example 465] displayed an EC50 of less than 0.1 µg/mL.

In turn, `COc1cccc(-c2c(C)nn3c(C4CC4)c(C(=O)N[C@H]4CCc5ccccc54)cnc23)c1` [Example 351] yielded an EC50 of less than 0.1 µg/mL.

`Cc1nn2c(C(C)C)c(C(=O)N[C@H]3CCOc4ccccc43)cnc2c1-c1cccc(F)c1` [Example 396] came in with an EC50 of less than 0.1 µg/mL.

`Cc1nn2c(C(C)C)c(C(=O)N[C@H]3CCCc4ccccc43)cnc2c1-c1c(F)cccc1F` [Example 98]: the EC50 is less than 0.1 µg/mL.

Regarding `Cc1nn2c(C3CC3)c(C(=O)N[C@H]3CCc4ccccc43)cnc2c1-c1ccccc1F` [Example 357], the EC50 was less than 0.1 µg/mL.

With `Cc1nn2c(C3CC3)c(C(=O)N[C@H]3CCc4ccccc43)cnc2c1-c1c(F)cc(F)cc1F` [Example 438], the EC50 was less than 0.1 µg/mL.

As to `Cc1nn2c(C3CC3)c(C(=O)N[C@H]3CCc4ccccc43)cnc2c1-c1ccccc1Cl` [Example 349], the EC50 was less than 0.1 µg/mL.

`Cc1nn2c(C3CC3)c(C(=O)N[C@H]3CCOc4ccccc43)cnc2c1-c1ccccc1Cl` [Example 452] showed an EC50 of less than 0.1 µg/mL.

As to `Cc1nn2c(C3CC3)c(C(=O)N[C@H]3CCc4ccccc43)cnc2c1-c1c(F)cccc1F` [Example 405], the concentration for a half-maximal effect (EC50) is less than 0.1 µg/mL.

`Cc1nn2c(C(C)C)c(C(=O)N[C@H]3CCOc4ccccc43)cnc2c1-c1cccc(C(F)F)c1` [Example 153]: the EC50 is less than 0.1 µg/mL.

`Cc1nn2c(C(C)C)c(C(=O)N[C@H]3CCc4ccccc43)cnc2c1-c1cccc(Cl)c1Cl` [Example 168] yielded an EC50 of less than 0.1 µg/mL.

Tested on in another data set: not listed separately
The data set can be described thus: log P by HPLC on reversed phase columns (Method L0; [a] acidic, [b] neutral range).
Settings: not given
`Cc1nn2c(C3CC3)c(C(=O)N[C@H]3CCc4ccccc43)cnc2c1-c1cc(F)ccc1F` [Example 422] returned a chromatographic logP of 3.84.

`Cc1nn2c(C(C)C)c(C(=O)N[C@H]3CCOc4ccccc43)cnc2c1-c1cccc(Cl)c1` [Example 117]: the chromatographic logP came to 4.87.

`Cc1nn2c(C(C)C)c(C(=O)N[C@H]3CCCc4ccccc43)cnc2c1-c1cccc(Cl)c1` [Example 45]: the chromatographic logP was found to be 5.51.

Molecule `Cc1nn2c(C(C)C)c(C(=O)N[C@H]3CCOc4ccccc43)cnc2c1-c1cccc(F)c1Cl` [Example 191] registered a chromatographic logP of 4.46.

As to `Cc1nn2c(C3CC3)c(C(=O)N[C@H]3CCOc4ccccc43)cnc2c1-c1cc(Cl)cc(C(F)(F)F)c1` [Example 465], the chromatographic logP was determined as 5.11.

Consider `COc1cccc(-c2c(C)nn3c(C4CC4)c(C(=O)N[C@H]4CCc5ccccc54)cnc23)c1` [Example 351], for which the chromatographic logP worked out at 3.74.

As to `Cc1nn2c(C(C)C)c(C(=O)N[C@H]3CCOc4ccccc43)cnc2c1-c1cccc(F)c1` [Example 396], the chromatographic logP turned out to be 4.45.

On to `Cc1nn2c(C(C)C)c(C(=O)N[C@H]3CCCc4ccccc43)cnc2c1-c1c(F)cccc1F` [Example 98], for which the chromatographic logP came to 4.67.

Consider `Cc1nn2c(C3CC3)c(C(=O)N[C@H]3CCc4ccccc43)cnc2c1-c1ccccc1F` [Example 357], for which the chromatographic logP was determined as 3.67.

As for `Cc1nn2c(C3CC3)c(C(=O)N[C@H]3CCc4ccccc43)cnc2c1-c1c(F)cc(F)cc1F` [Example 438], the chromatographic logP was determined as 3.87.

In the case of `Cc1nn2c(C3CC3)c(C(=O)N[C@H]3CCc4ccccc43)cnc2c1-c1ccccc1Cl` [Example 349], the chromatographic logP turned out to be 3.88.

Take `Cc1nn2c(C3CC3)c(C(=O)N[C@H]3CCOc4ccccc43)cnc2c1-c1ccccc1Cl` [Example 452]: the chromatographic logP came out at 3.64.

`Cc1nn2c(C3CC3)c(C(=O)N[C@H]3CCc4ccccc43)cnc2c1-c1c(F)cccc1F` [Example 405]: the chromatographic logP is 3.66.

With `Cc1nn2c(C(C)C)c(C(=O)N[C@H]3CCOc4ccccc43)cnc2c1-c1cccc(C(F)F)c1` [Example 153], the chromatographic logP stood at 4.41.

With `Cc1nn2c(C(C)C)c(C(=O)N[C@H]3CCc4ccccc43)cnc2c1-c1cccc(Cl)c1Cl` [Example 168], the chromatographic logP was 5.13.

For a further data set, the target named is C. elegans Slo-1a (Caenorhabditis elegans, UniProt Q95V25). The data set can be described thus: In vitro assay 1: C. elegans Slo-1a, action at a recombinant C. elegans CHO cell line (membrane potential measurement).
C. elegans Slo-1a, sequence (Q95V25 whole entry): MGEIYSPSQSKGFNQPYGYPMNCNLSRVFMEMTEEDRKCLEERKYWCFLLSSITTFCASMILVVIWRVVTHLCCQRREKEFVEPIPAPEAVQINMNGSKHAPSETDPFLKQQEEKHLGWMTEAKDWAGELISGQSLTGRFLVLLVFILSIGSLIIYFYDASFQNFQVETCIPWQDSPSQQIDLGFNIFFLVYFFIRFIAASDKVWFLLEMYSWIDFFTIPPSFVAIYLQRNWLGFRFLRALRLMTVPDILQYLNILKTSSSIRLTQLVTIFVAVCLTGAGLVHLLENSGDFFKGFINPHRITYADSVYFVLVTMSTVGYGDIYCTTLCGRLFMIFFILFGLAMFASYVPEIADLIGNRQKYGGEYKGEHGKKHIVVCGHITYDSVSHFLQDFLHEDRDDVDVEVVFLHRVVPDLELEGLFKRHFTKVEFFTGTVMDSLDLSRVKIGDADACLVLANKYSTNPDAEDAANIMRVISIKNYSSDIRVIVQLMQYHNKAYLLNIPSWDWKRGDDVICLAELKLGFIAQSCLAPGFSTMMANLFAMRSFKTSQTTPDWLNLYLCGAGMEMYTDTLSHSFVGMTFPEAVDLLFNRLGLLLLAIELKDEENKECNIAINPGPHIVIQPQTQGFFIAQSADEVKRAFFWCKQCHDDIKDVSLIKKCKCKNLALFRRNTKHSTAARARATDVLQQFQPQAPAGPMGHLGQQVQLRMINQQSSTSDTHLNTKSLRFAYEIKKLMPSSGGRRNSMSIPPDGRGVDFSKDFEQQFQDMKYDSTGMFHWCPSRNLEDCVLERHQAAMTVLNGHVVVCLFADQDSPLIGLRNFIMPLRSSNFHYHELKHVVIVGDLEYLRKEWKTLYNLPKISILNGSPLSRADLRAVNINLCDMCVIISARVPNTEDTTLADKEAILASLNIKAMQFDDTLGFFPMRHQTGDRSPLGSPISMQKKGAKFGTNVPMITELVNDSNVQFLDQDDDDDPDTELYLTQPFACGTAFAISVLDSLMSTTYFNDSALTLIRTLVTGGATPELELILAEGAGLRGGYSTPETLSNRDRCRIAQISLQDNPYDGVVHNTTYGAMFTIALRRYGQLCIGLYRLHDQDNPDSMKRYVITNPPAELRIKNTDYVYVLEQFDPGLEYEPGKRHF
Settings: not given
`Cc1nn2c(C3CC3)c(C(=O)N[C@H]3CCc4ccccc43)cnc2c1-c1cc(F)ccc1F` [Example 422]: the concentration for a half-maximal effect (EC50) is 3.98 nM.

On to `Cc1nn2c(C(C)C)c(C(=O)N[C@H]3CCOc4ccccc43)cnc2c1-c1cccc(Cl)c1` [Example 117], for which the EC50 was 5.01 nM.

On to `Cc1nn2c(C(C)C)c(C(=O)N[C@H]3CCCc4ccccc43)cnc2c1-c1cccc(Cl)c1` [Example 45], for which the EC50 is 50.1 nM.

For the molecule `Cc1nn2c(C(C)C)c(C(=O)N[C@H]3CCOc4ccccc43)cnc2c1-c1cccc(F)c1Cl` [Example 191], the EC50 was 1.26 nM.

For `Cc1nn2c(C3CC3)c(C(=O)N[C@H]3CCOc4ccccc43)cnc2c1-c1cc(Cl)cc(C(F)(F)F)c1` [Example 465], the EC50 was 10 nM.

`COc1cccc(-c2c(C)nn3c(C4CC4)c(C(=O)N[C@H]4CCc5ccccc54)cnc23)c1` [Example 351]: the EC50 is 3.98 nM.

For `Cc1nn2c(C(C)C)c(C(=O)N[C@H]3CCOc4ccccc43)cnc2c1-c1cccc(F)c1` [Example 396], the EC50 was 15.8 nM.

Regarding `Cc1nn2c(C(C)C)c(C(=O)N[C@H]3CCCc4ccccc43)cnc2c1-c1c(F)cccc1F` [Example 98], the EC50 was 12.6 nM.

In the case of `Cc1nn2c(C3CC3)c(C(=O)N[C@H]3CCc4ccccc43)cnc2c1-c1ccccc1F` [Example 357], the half-maximal effective concentration (EC50) was 6.31 nM.

Turning to `Cc1nn2c(C3CC3)c(C(=O)N[C@H]3CCc4ccccc43)cnc2c1-c1c(F)cc(F)cc1F` [Example 438], the EC50 was 1.26 nM.

With `Cc1nn2c(C3CC3)c(C(=O)N[C@H]3CCc4ccccc43)cnc2c1-c1ccccc1Cl` [Example 349], the EC50 is 2.51 nM.

For the molecule `Cc1nn2c(C3CC3)c(C(=O)N[C@H]3CCOc4ccccc43)cnc2c1-c1ccccc1Cl` [Example 452], the concentration giving a half-maximal response (EC50) is 2.51 nM.

`Cc1nn2c(C3CC3)c(C(=O)N[C@H]3CCc4ccccc43)cnc2c1-c1c(F)cccc1F` [Example 405]: the EC50 is 3.16 nM.

Regarding `Cc1nn2c(C(C)C)c(C(=O)N[C@H]3CCOc4ccccc43)cnc2c1-c1cccc(C(F)F)c1` [Example 153], the 50% effective concentration (EC50) was 126 nM.

Take `Cc1nn2c(C(C)C)c(C(=O)N[C@H]3CCc4ccccc43)cnc2c1-c1cccc(Cl)c1Cl` [Example 168]: the EC50 is 3.16 nM.
